In patent US20060069132A1, “Azolecarboxamide herbicides” (priority 2004, published 2006):

Key:
pigweed = experiment: Test B pre-/postemergence herbicide test; type: in vivo, Amaranthus retroflexus
Summary of the method: (§1)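 Herbicidal effect was judged by eye on a 0–100 scale after plants stood 13 to 15 days in the greenhouse following pre- or postemergence treatment with surfactant-containing formulations.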

blackgrass = experiment: Test B postemergence herbicide test; type: in vivo, Alopecurus myosuroides; conditions: scale 0 (no effect) to 100 (complete control); for Plant response rating, Blackgrass: 500 g ai/ha, visual rating after 13 to 15 days; for Blackgrass plant response rating: 125 g ai/ha
Summary of the method: (§2)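 Paddy species grown to the 2-leaf stage under flooding; blackgrass sprayed postemergence at 2–18 cm (1- to 4-leaf stage). Plants kept in a greenhouse for 13 to 15 days, then visually rated against controls on 0 (no effect) to 100 (complete control).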

barnyardgrass [1] = experiment: Test B pre-/postemergence herbicide test; type: in vivo, Echinochloa crus-galli
Summary of the method: (§3)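 Test chemicals in a non-phytotoxic solvent mixture with surfactant were applied preemergence to seeded species and postemergence to plants 2-18 cm tall (1- to 4-leaf stage); rice and barnyardgrass were also tested in a flooded paddy at the 2-leaf stage. Visual rating versus controls after 13-15 days in greenhouse, scale 0 (no effect) to 100 (complete control).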

Surinam grass = experiment: Test B pre-/postemergence herbicide test; type: in vivo, Urochloa decumbens
Summary of the method: as §1

morningglory = experiment: Test B pre-/postemergence herbicide test; type: in vivo, Ipomoea coccinea
Summary of the method: as §3

large crabgrass = experiment: Test B pre-/postemergence herbicide test; type: in vivo, Digitaria sanguinalis
Summary of the method: as §1

lambsquarters = experiment: Test B pre-/postemergence herbicide test; type: in vivo, Chenopodium album
Summary of the method: as §1

barnyardgrass [2] = experiment: Test B flooded paddy test; type: in vivo, Echinochloa crus-galli; conditions: 1000 g ai/ha, visual rating, scale 0 to 100 (0 no effect, 100 complete control), 13 to 15 days
Summary of the method: as §2

wheat = experiment: Test B postemergence herbicide test; type: in vivo, Triticum aestivum; design: key to Wheat plant response rating: 0 = no effect, 100 = complete control; conditions: scale 0 (no effect) to 100 (complete control); for Plant response rating, Wheat: Postemergence, 500 g ai/ha, visual rating after 13 to 15 days
Summary of the method: (§4)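 Greenhouse test; postemergence application to plants at 1–4 leaves (2–18 cm); paddy species at 2 leaves; evaluated visually vs controls at 13–15 days; scale 0–100 (100 = complete control).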

rice = experiment: Test B flooded paddy test; type: in vivo, Oryza sativa; conditions: 1000 g ai/ha, visual rating, scale 0 to 100 (0 no effect, 100 complete control), 13 to 15 days
Summary of the method: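 Treated at 2-leaf (paddy) or 1–4-leaf, 2–18 cm (postemergence); greenhouse 13–15 d; visual score vs control, 0 none to 100 complete control; dash = not tested.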

cocklebur = experiment: Test B pre-/postemergence herbicide test; type: in vivo, Xanthium strumarium
Summary of the method: as §3

velvetleaf = experiment: Test B pre-/postemergence herbicide test; type: in vivo, Abutilon theophrasti
Summary of the method: as §1

wild oat = experiment: Test B postemergence herbicide test; type: in vivo, Avena fatua; conditions: scale 0 (no effect) to 100 (complete control); for Plant response rating, Oat, Wild: 500 g ai/ha, visual rating after 13 to 15 days; for Oat, Wild plant response rating: 125 g ai/ha
Summary of the method: as §4

ducksalad = experiment: Test B flooded paddy test; type: in vivo, Heteranthera limosa; conditions: 1000 g ai/ha, visual rating, scale 0 to 100 (0 no effect, 100 complete control), 13 to 15 days
Summary of the method: as §2

corn = experiment: Test B pre-/postemergence herbicide test; type: in vivo, Zea mays
Summary of the method: as §1

[3] = tested on: small flower umbrella sedge; experiment: Test B flooded paddy test; type: in vivo, Cyperus difformis; conditions: 1000 g ai/ha, visual rating, scale 0 to 100 (0 no effect, 100 complete control), 13 to 15 days
Summary of the method: as §2

[4] = Postemergence, 500 g ai/ha, visual rating after 13 to 15 days, scale 0 (no effect) to 100 (complete control)
[5] = postemergence, 125 g ai/ha, visual rating, scale 0 (no effect) to 100 (complete control)
[6] = preemergence, 125 g ai/ha, 0 to 100 scale, 0 is no effect, 100 is complete control
[7] = Preemergence, 500 g ai/ha, scale 0 to 100
[8] = Postemergence, 125 g ai/ha, scale 0 (no effect) to 100 (complete control)

CCOC(=O)c1cccc(NC(=O)c2cc(C(C)(C)C)nn2CC)c1C [Compound 88]
Plant response rating, Pigweed (pigweed; [4]): 60
Pigweed plant response rating (pigweed; [5]): 50
Plant response rating, Pigweed (pigweed; [6]): 100
Plant response rating, Blackgrass (blackgrass; Postemergence): 0
Blackgrass plant response rating (blackgrass; postemergence, visual rating): 0
Plant response rating, Barnyardgrass (barnyardgrass [1]; [4]): 60
Barnyardgrass plant response rating (barnyardgrass [1]; [7]): 90
Barnyardgrass plant response rating (barnyardgrass [1]; [5]): 30
Plant response rating, Barnyardgrass (barnyardgrass [1]; [6]): 70
Plant response rating, Surinam Grass (Surinam grass; [4]): 0
Surinam Grass plant response rating (Surinam grass; [5]): 0
Plant response rating, Surinam Grass (Surinam grass; [6]): 20
Plant response rating, Morningglory (morningglory; [4]): 0
Morningglory plant response rating (morningglory; [5]): 0
Plant response rating, Morningglory (morningglory; [6]): 0
Plant response rating, Crabgrass, Large (large crabgrass; [4]): 60
Crabgrass, Large plant response rating (large crabgrass; [7]): 100
Crabgrass, Large plant response rating (large crabgrass; [5]): 30
Plant response rating, Crabgrass, Large (large crabgrass; [6]): 90
Plant response rating, Lambsquarters (lambsquarters; [4]): 100
Lambsquarters plant response rating (lambsquarters; [5]): 70
Plant response rating, Lambsquarters (lambsquarters; [6]): 100
Barnyardgrass plant response rating (barnyardgrass [2]): 70
Plant response rating, Wheat (wheat): 0
Wheat plant response rating (wheat; postemergence, 125 g ai/ha, visual rating): 0
Rice plant response rating (rice): 40
Plant response rating, Cocklebur (cocklebur; [4]): 50
Cocklebur plant response rating (cocklebur; [7]): 0
Cocklebur plant response rating (cocklebur; [5]): 10
Plant response rating, Cocklebur (cocklebur; [6]): 0
Plant response rating, Velvetleaf (velvetleaf; [4]): 70
Velvetleaf plant response rating (velvetleaf; [5]): 30
Plant response rating, Velvetleaf (velvetleaf; [6]): 40
Plant response rating, Oat, Wild (wild oat; Postemergence): 0
Oat, Wild plant response rating (wild oat; postemergence, visual rating): 0
Ducksalad plant response rating (ducksalad): 80
Plant response rating, Corn (corn; [4]): 70
Corn plant response rating (corn; [7]): 60
Corn plant response rating (corn; [5]): 10
Plant response rating, Corn (corn; [6]): 0
Sedge, Umbrella plant response rating [3]: 80

C=CCNC(=O)c1cccc(NC(=O)c2cc(C(C)(C)C)nn2CC)c1 [Compound 46]
Plant response rating, Pigweed (pigweed; [4]): 90
Pigweed plant response rating (pigweed; [7]): 100
Plant response rating, Pigweed (pigweed; [6]): 100
Blackgrass plant response rating (blackgrass; Postemergence): 10
Plant response rating, Blackgrass (blackgrass; Postemergence): 20
Barnyardgrass plant response rating (barnyardgrass [1]; [8]): 10
Plant response rating, Barnyardgrass (barnyardgrass [1]; [4]): 50
Barnyardgrass plant response rating (barnyardgrass [1]; [7]): 100
Plant response rating, Surinam Grass (Surinam grass; [4]): 40
Surinam Grass plant response rating (Surinam grass; [7]): 70
Plant response rating, Surinam Grass (Surinam grass; [6]): 20
Morningglory plant response rating (morningglory; [8]): 0
Plant response rating, Morningglory (morningglory; [4]): 90
Morningglory plant response rating (morningglory; [7]): 20
Plant response rating, Morningglory (morningglory; [6]): 10
Crabgrass, Large plant response rating (large crabgrass; [8]): 30
Plant response rating, Crabgrass, Large (large crabgrass; [4]): 90
Crabgrass, Large plant response rating (large crabgrass; [7]): 100
Lambsquarters plant response rating (lambsquarters; [8]): 80
Plant response rating, Lambsquarters (lambsquarters; [4]): 90
Lambsquarters plant response rating (lambsquarters; [7]): 100
Plant response rating, Lambsquarters (lambsquarters; [6]): 100
Barnyardgrass plant response rating (barnyardgrass [2]): 90
Plant response rating, Wheat (wheat): 30
Rice plant response rating (rice): 70
Cocklebur plant response rating (cocklebur; [8]): 30
Plant response rating, Cocklebur (cocklebur; [4]): 90
Cocklebur plant response rating (cocklebur; [7]): 30
Plant response rating, Velvetleaf (velvetleaf; [4]): 80
Velvetleaf plant response rating (velvetleaf; [7]): 100
Plant response rating, Velvetleaf (velvetleaf; [6]): 50
Oat, Wild plant response rating (wild oat; Postemergence): 0
Plant response rating, Oat, Wild (wild oat; Postemergence): 10
Ducksalad plant response rating (ducksalad): 90
Corn plant response rating (corn; [8]): 20
Plant response rating, Corn (corn; [4]): 30
Corn plant response rating (corn; [7]): 10
Sedge, Umbrella plant response rating [3]: 80
